Laboratory results reported in US10189794B2, “Heteroaryl compounds and uses thereof” (Celgene CAR LLC, priority 2013, dated 2019).
Like-named read-outs stand apart in the source and are kept apart here.

Experiments:
FGFR4-WT = FGFR4-WT (Homo sapiens (Human), UniProt P22455); assay: Omnia assay for potency assessment against FGFR4 enzyme; format: biochemical; conditions: Y10-Sox 10 uM, read-out: FGFR4 IC50
Procedure: A 10× stock solution of FGFR4-WT (PR4380C), (from Invitrogen, Carlsbad, Calif.) corresponding to method a in Table 7, was prepared as described below. Alternatively, a 10× stock solution of FGFR4-WT (F01-11G), (SignalChem, Richmond, BC) corresponding to method b in Table 7, was prepared as described below. A solution of 1.4×ATP (AS001A) and 5×Tyr-Sox conjugated peptide substrate (KNZ3101) were prepared in IX kinase reaction buffer consisting of 20 mM Tris, pH 7.5, 5 mM MgCl2, 1 mM EGTA, 5 mM β-glycerophosphate, 5% glycerol (10× stock, KB002A) and 0.2 mM DTT (DS001A). […] The serially diluted compounds were prepared on a Tecan EVO100. A second addition of 10 μl of Tyr-Sox FGFR4 substrate was added to each well and the kinase reactions were started with the addition of 35 μL of 1.4×ATP. The reactions were monitored every 71 seconds for 240 minutes at λex360/λem485 in a Synergy plate reader from BioTek (Winooski, Vt.).

MDA-MB-453 cells = assay: Cell proliferation, MDA-MB-453 (CellTiter Glo); format: cell-based; conditions: Homo sapiens, read-out: Cell Proliferation GI50 (nM) MDA
Procedure: For both MDA-MB-453 and Huh7 cells the starting density was 5000 cells per well. The cells were allowed to settle down for 4 hr and were then treated with 5, 1.25, 0.31, 0.078, 0.020 or 0.005 μM of test compound for: 96 hr for MDA-MB-453 and 120 hr for Huh7 cells. Cell viability was determined by CellTiter Glo (Promega, Madison, Wis.) and the results were converted to cell numbers using a standard curve. The growth inhibition (GI50) values were determined by Graph Pad Prism.
The results of these experiments show the ability of compounds to inhibit cell growth in FGFR dependant cell lines and are depicted in Table 8, in the columns titled “Cell Proliferation GI50 (nM)”. MDA-MB-453 cell results fall under the heading “MDA” and Huh7 cell results fall under the heading “Huh.”

Huh7 cells = assay: Cell proliferation, Huh7 (CellTiter Glo); format: cell-based; conditions: Homo sapiens, read-out: Cell Proliferation GI50 (nM) HUH
Procedure: The growth inhibition (GI50) values were determined by Graph Pad Prism.

[1] = method a: Invitrogen FGFR4-WT 10 nM, ATP 300 uM

Sequence of FGFR4-WT (P22455 22-802): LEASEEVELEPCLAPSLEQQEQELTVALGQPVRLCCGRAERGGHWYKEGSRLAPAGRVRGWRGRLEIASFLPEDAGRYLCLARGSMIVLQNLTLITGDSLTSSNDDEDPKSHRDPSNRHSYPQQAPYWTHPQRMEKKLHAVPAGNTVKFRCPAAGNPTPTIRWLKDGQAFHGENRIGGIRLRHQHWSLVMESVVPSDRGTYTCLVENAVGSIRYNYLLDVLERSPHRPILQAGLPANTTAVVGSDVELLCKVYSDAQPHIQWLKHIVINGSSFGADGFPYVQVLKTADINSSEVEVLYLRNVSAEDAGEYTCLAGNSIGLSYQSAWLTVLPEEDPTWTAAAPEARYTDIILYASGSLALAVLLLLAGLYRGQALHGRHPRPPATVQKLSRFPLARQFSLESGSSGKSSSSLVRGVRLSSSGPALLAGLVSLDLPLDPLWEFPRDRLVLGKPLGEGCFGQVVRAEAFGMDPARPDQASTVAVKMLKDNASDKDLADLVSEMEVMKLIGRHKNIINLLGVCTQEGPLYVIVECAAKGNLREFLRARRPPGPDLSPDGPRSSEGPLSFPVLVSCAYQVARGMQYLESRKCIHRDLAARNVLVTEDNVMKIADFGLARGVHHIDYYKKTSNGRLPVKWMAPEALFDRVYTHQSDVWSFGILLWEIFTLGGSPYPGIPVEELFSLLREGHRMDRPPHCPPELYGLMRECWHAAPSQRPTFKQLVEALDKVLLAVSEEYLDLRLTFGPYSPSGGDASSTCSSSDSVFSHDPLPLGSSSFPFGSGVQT

GI50 (MDA-MB-453 cells; MDA-MB-453, 96 hr) [nM] | GI50 (Huh7 cells; Huh-7, Huh7, 120 hr) [nM] | Structure (SMILES) | IC50 (FGFR4-WT; [1]) [nM] | further results
– | – | C=CC(=O)NC1CCCCC1Nc1ncc2c(n1)N(C)C(=O)N(c1cc(OC)cc(OC)c1)C2 (racemic) [I-18] | – | IC50 (FGFR4-WT; method b: SignalChem FGFR4-WT 2.5 nM, ATP 250 uM): > 1000 nM
– | – | C=CC(=O)N(C)C1CCCCC1Nc1ncc2c(n1)N(C)C(=O)N(c1cc(OC)cc(OC)c1)C2 (racemic) [I-39] | > 1000 | –
– | – | C=CC(=O)NC1CCCCC1Nc1ncc2c(n1)N(C1CCCN(C(=O)OC(C)(C)C)C1)C(=O)N(c1cc(OC)cc(OC)c1)C2 (racemic) [I-45] | > 1000 | –
– | – | C=CC(=O)NC1CCCCC1Nc1ncc2c(n1)N(C1CCCNC1)C(=O)N(c1cc(OC)cc(OC)c1)C2 (racemic) [I-46] | > 1000 | –
– | – | C=CC(=O)NC1CCCCC1Nc1ncc2c(n1)N(C1CCC1)C(=O)N(c1c(Cl)c(OC)cc(OC)c1Cl)C2 (racemic) [I-70] | < 100 | –
– | – | C=CC(=O)NC1CCCCC1Nc1ncc2c(n1)N(Cc1cccc(NS(C)(=O)=O)c1)C(=O)N(c1c(Cl)c(OC)cc(OC)c1Cl)C2 (racemic) [I-89] | < 100 | –
– | – | C=CC(=O)NC1CCCC1Nc1ncc2c(n1)N(C)C(=O)N(c1c(Cl)c(OC)cc(OC)c1Cl)C2 (racemic) [I-112] | < 100 | –
– | – | C=CC(=O)NC1CCCCC1Nc1ncc2c(n1)N(CC1CC1)C(=O)N(c1c(Cl)c(OC)cc(OC)c1Cl)C2 (racemic) [I-129] | < 100 | –
– | – | C=CC(=O)Nc1ccccc1Nc1ncc2c(n1)N(Cc1cccc(OC)c1)C(=O)N(c1c(Cl)c(OC)cc(OC)c1Cl)C2 [I-28] | < 100 | –
– | – | C=CC(=O)Nc1ccccc1Nc1ncc2c(n1)N(C1CCNCC1)C(=O)N(c1c(Cl)c(OC)cc(OC)c1Cl)C2 [I-85] | – | GI50 (MDA-MB-453 cells; MDA-MB-453, 96 h): < 100 nM; GI50 (Huh7 cells; Huh-7, 120 h): 101 to 500 nM
< 100 | 101 to 500 | C=CC(=O)Nc1ccccc1Nc1ncc2c(n1)N(Cc1ccnc(N)c1)C(=O)N(c1cc(OC)cc(OC)c1)C2 [I-87] | – | –
501 to 999 | > 1000 | C=CC(=O)Nc1ccccc1Nc1ncc2c(n1)N(C1COC1)C(=O)N(c1cc(OC)cc(OC)c1)C2 [I-88] | – | –
101 to 500 | 501 to 999 | C=CC(=O)N[C@H]1CCCC[C@H]1Nc1ncc2c(n1)N(C)C(=O)N(c1c(Cl)c(OC)cc(OC)c1Cl)C2 [I-95] | – | –
101 to 500 | > 1000 | C=CC(=O)Nc1ccccc1Nc1ncc2c(n1)N(Cc1cccc(C(N)=O)c1)C(=O)N(c1cc(OC)cc(OC)c1)C2 [I-97] | – | –
101 to 500 | > 1000 | C=CC(=O)Nc1ccccc1Nc1ncc2c(n1)N(CC1CC1)C(=O)N(c1cc(OC)cc(OC)c1)C2 [I-98] | – | –
101 to 500 | > 1000 | C=CC(=O)Nc1ccccc1Nc1ncc2c(n1)N(CC(F)F)C(=O)N(c1cc(OC)cc(OC)c1)C2 [I-99] | – | –
101 to 500 | 501 to 999 | C=CC(=O)Nc1ccccc1Nc1ncc2c(n1)N(CC1CC1)C(=O)N(c1cc(OC)cc(OC)c1Cl)C2 [I-100] | – | –
< 100 | 101 to 500 | C=CC(=O)Nc1ccccc1Nc1ncc2c(n1)N(CC(F)F)C(=O)N(c1c(Cl)c(OC)cc(OC)c1Cl)C2 [I-103] | – | –
< 100 | 101 to 500 | C=CC(=O)Nc1ccccc1Nc1ncc2c(n1)N(CC(F)F)C(=O)N(c1cc(OC)cc(OC)c1Cl)C2 [I-104] | – | –
101 to 500 | 501 to 999 | C=CC(=O)Nc1ccccc1Nc1ncc2c(n1)N(CCF)C(=O)N(c1cc(OC)cc(OC)c1Cl)C2 [I-110] | – | –
< 100 | 101 to 500 | C=CC(=O)Nc1ccccc1Nc1ncc2c(n1)N(CC(F)F)C(=O)N(c1c(F)c(OC)cc(OC)c1F)C2 [I-116] | – | –
101 to 500 | 501 to 999 | C=CC(=O)Nc1ccccc1Nc1ncc2c(n1)N(Cc1cn[nH]c1)C(=O)N(c1cc(OC)cc(OC)c1)C2 [I-121] | – | –
< 100 | 101 to 500 | C=CC(=O)Nc1ccccc1Nc1ncc2c(n1)N(Cc1cn[nH]c1)C(=O)N(c1c(Cl)c(OC)cc(OC)c1Cl)C2 [I-124] | – | –
< 100 | 101 to 500 | C=CC(=O)Nc1ccccc1Nc1ncc2c(n1)N(C)C(=O)N(c1c(F)c(OC)cc(OC)c1F)C2 [I-131] | – | –
< 100 | 101 to 500 | C=CC(=O)NC1CCCCC1Nc1ncc2c(n1)N(Cc1ccnc(N)c1)C(=O)N(c1c(Cl)c(OC)cc(OC)c1Cl)C2 (centres unmarked) [I-133] | – | –
